Experimental data published in patent US4029671A, “3-[(5-nitro-2-imidazolyl)pyrazol-5-yl]oxamic acid derivatives” (priority 1976, dated 1977).
Counter-ions that a name gives are not always drawn.

Legend:
Assay type in all cases: cell-based
[1] = test system: Actinomyces israelii W855; test: Agar dilution susceptibility of anaerobic bacteria (Chart 1); details: Actinomyces israelii, W855, 24 h, read-out: 24 Hr. MIC, agar dilution, 37° C.
[2] = test system: Clostridium perfringens 81; test: microbe, parasite or virus in culture; details: agar dilution, 37° C.
[3] = test system: Clostridium septicum 1128; test: Agar dilution susceptibility of anaerobic bacteria (Chart 1); details: 37° C.
Method: The susceptibility of anaerobic bacteria, both gram positive and gram negative, to a representative number of the novel compounds of this application was determined using the agar dilution method. The bacteria used were isolated from patients hospitalized at the Indiana Univerisity Medical Center. The isolates were identified in the anaerobe laboratory of the Medical Center by the criteria established by Dowell et al., Laboratory Methods in Anaerobic Bacteriology. Public Health Serv. Publ. NO. 1803 (1968) [Center for Disease Control, Atlanta, Ga.]; and by Smith et al., The Pathogenic Anaerobic Bacteria, pages 96- 136 (1968) [Charles C. Thomas, Publisher, Springfield, Ill.]. All the organisms were maintained in chopped meat glucose medium (Scott Labs) at room temperature.
The method used for the agar dilution tests was based on the studies of Sutter et al., Antimicrob. Ag. Chemother. 3, 188-193 (1973). The strains of anaerobic bacteria were grown in 16×× 120 mm. tubes for 16 to 18 hours in Thioglycolate medium without indicator-- 135C (Becton, Dickinson and Co.), to which was added 5 mcg. of hemin per milliliter prior to autoclaving, plus 1 mg. of sodium bicarbonate and 0.1 mcg. of filter-sterilized menadione per milliliter after autoclaving. The strains were adjusted to the turbidity of the No. 1 McFarland standard in Thioglycolate medium without indicator-- 135C containing an additional 0.13 percent Bacto-agar (Difco). Each strain was then applied to the surface of the petri plate (100 mm× 15 mm.) by means of a replicator.
For the agar dilution studies, two-fold dilutions of the test compounds were prepared in deionized water to which was then added laked sheep blood and filter-sterilized menadione so the concentrations after the agar dilution were 5 percent and 10 mcg./ml. respectively. An equal volume of double strength Brucella agar (Becton, Dickinson and Co.) was mixed with each dilution in a water bath held at 50° C. and then poured onto the petri dishes.
All of the procedures were done inside a plastic glove box, except for the incubation of the growth tubes and the pouring of the plates. After the plates hardened, they were put inside the glove box for a minimum of 2 hours before they were inoculated. Generally, the glove box procedures of Aranki et al., Applied Microbiology 17, 568-576 (1969), were followed, but the following modifications were used. Dry materials were introduced into the glove box by evacuating the lock to 28 inches of mercury and filling once with nitrogen gas, followed by evacuating in the same manner and filling with an 80 percent nitrogen plus 10 percent CO2 plus 10 percent hydrogen gas mixture. Liquid media and agar plates were introduced into the glove box by evacuating the lock to 10 inches of mercury and filling with gas four times. The nitrogen gas was used to fill the lock for the first two cycles of evacuation, with the gas mixture described above used for the final two fillings.
All the plates were incubated at 37° C. in Gas Pak jars (Becton, Dickinson and Co.) containing palladium-coated alumina catalysts (reactivated after each use). The results of the agar dilution tests were read after about 24 hours of incubation. The minimum inhibitory concentration (MIC) was recorded as the lowest concentration of test compound at which there was no growth.
The test compounds are identified by the number of the example describing their preparation. The antibiotics clindamycin (C), and erythromycin (E) were also run simultaneously with the novel compounds of this application,for comparison purposes, and the results are included in Chart 1 below.

[4] = test system: Eubacterium aerofaciens 1235; test: as above; details: agar dilution, 37° C., Eubacterium aerofaciens 1235
[5] = test system: Peptococcus asaccharolyticus 1302; test: as above; details: agar dilution, 37° C., Peptococcus asaccharolyticus 1302
Peptococcus prevoti 1281 = test: as above; details: agar dilution, 37° C.
[6] = test system: Peptostreptococcus anaerobius 1428; test: as above; details: agar dilution, 37° C., Peptostreptococcus anaerobius 1428
[7] = test system: Peptostreptococcus intermedius 1264; test: as above; details: agar dilution, 37° C., Peptostreptococcus intermedius 1264
[8] = test system: Propionibacterium acnes 79; test: as above; details: Cutibacterium acnes, 79, 24 h, read-out: 24 Hr. MIC
[9] = test system: Bacteroides fragilis sp. fragilis 1936B; test: as above; details: agar dilution, 37° C., Bacteroides fragilis sp. fragilis 1936B
[10] = test system: Bacteroides melaninogenicus 1856/28; test: as above; details: agar dilution, 37° C., Bacteroides melaninogenicus 1856/28
[11] = test system: Bacteroides melaninogenicus 2736; test: as above; details: agar dilution, 37° C., Bacteroides melaninogenicus 2736
[12] = test system: Bacteroides vulgatis 1211; test: as above; details: agar dilution, 37° C., Bacteroides vulgatis 1211
[13] = test system: Bacteroides corrodens 1874; test: as above; details: agar dilution, 37° C., Bacteroides corrodens 1874
[14] = test system: Fusobacterium symbiosum 1470; test: as above; details: agar dilution, 37° C., Fusobacterium symbiosum 1470
[15] = test system: Fusobacterium necrophorum 6054A; test: as above; details: agar dilution, 37° C., Fusobacterium necrophorum 6054A
[16] = test system: Bacteroides fragilis sp. fragilis 1877; test: as above; details: agar dilution, 37° C.; Bacteroides fragilis sp. fragilis 1877; sodium salt
[17] = test system: Bacteroides fragilis sp. fragilis 103; test: as above; details: agar dilution, 37° C.; Bacteroides fragilis sp. fragilis 103; sodium salt
[18] = test system: Bacteroides fragilis sp. fragilis 107; test: as above; details: agar dilution, 37° C.; Bacteroides fragilis sp. fragilis 107; sodium salt
[19] = test system: Bacteroides fragilis sp. fragilis 108; test: as above; details: agar dilution, 37° C.; Bacteroides fragilis sp. fragilis 108; sodium salt
[20] = test system: Bacteroides fragilis sp. fragilis 110; test: as above; details: agar dilution, 37° C.; Bacteroides fragilis sp. fragilis 110; sodium salt
[21] = test system: Bacteroides fragilis sp. fragilis 111; test: as above; details: agar dilution, 37° C.; Bacteroides fragilis sp. fragilis 111; sodium salt
[22] = test system: Bacteroides fragilis sp. fragilis 112; test: as above; details: agar dilution, 37° C.; Bacteroides fragilis sp. fragilis 112; sodium salt
[23] = test system: Bacteroides fragilis sp. fragilis 113; test: as above; details: agar dilution, 37° C.; Bacteroides fragilis sp. fragilis 113; sodium salt
[24] = test system: Bacteroides fragilis sp. fragilis 1451; test: as above; details: agar dilution, 37° C.; Bacteroides fragilis sp. fragilis 1451; sodium salt
[25] = test system: Bacteroides fragilis sp. fragilis 1470; test: as above; details: agar dilution, 37° C.; Bacteroides fragilis sp. fragilis 1470; sodium salt
[26] = test system: Bacteroides fragilis sp. fragilis 2; test: as above; details: agar dilution, 37° C.; Bacteroides fragilis sp. fragilis 2; sodium salt
[27] = test system: Bacteroides fragilis sp. fragilis 9; test: as above; details: agar dilution, 37° C.; Bacteroides fragilis sp. fragilis 9; sodium salt
[28] = test system: Bacteroides fragilis sp. fragilis 62; test: as above; details: agar dilution, 37° C.; Bacteroides fragilis sp. fragilis 62; sodium salt
[29] = test system: Bacteroides fragilis sp. vulgatis 1563; test: as above; details: agar dilution, 37° C.; Bacteroides fragilis sp. vulgatis 1563; sodium salt
[30] = test system: Bacteroides fragilis sp. thetaiotaomicron 1438; test: as above; details: agar dilution, 37° C.; Bacteroides fragilis sp. thetaiotaomicron 1438; sodium salt
[31] = test system: Bacteroides fragilis sp. thetaiotaomicron 1900A; test: as above; details: agar dilution, 37° C.; Bacteroides fragilis sp. thetaiotaomicron 1900A; sodium salt

CCOC(=O)C(=O)Nc1c(C#N)c(-c2ncc([N+](=O)[O-])n2C)nn1C [Example 4, N-[4-Cyano-1-methyl-3-(1-methyl-5-nitroimidazol-2-yl)pyrazol-5-yl]oxamic acid, ethyl ester, ammonium salt]
MIC [1]: > 128 µg/mL | 24 Hr. MIC ([2]; ammonium salt): ≤ 0.5 µg/mL | 24 Hr. MIC ([3]; ammonium salt): 16 µg/mL | 24 Hr. MIC ([4]; ammonium salt): ≤ 0.5 µg/mL | 24 Hr. MIC ([5]; ammonium salt): ≤ 0.5 µg/mL | 24 Hr. MIC (Peptococcus prevoti 1281; ammonium salt): 32 µg/mL | 24 Hr. MIC ([6]; ammonium salt): ≤ 0.5 µg/mL | 24 Hr. MIC ([7]; ammonium salt): ≤ 0.5 µg/mL | MIC [8]: > 128 µg/mL | 24 Hr. MIC ([9]; ammonium salt): ≤ 0.5 µg/mL | 24 Hr. MIC ([10]; ammonium salt): 1.0 µg/mL | 24 Hr. MIC ([11]; ammonium salt): ≤ 0.5 µg/mL | 24 Hr. MIC ([12]; ammonium salt): ≤ 0.5 µg/mL | 24 Hr. MIC ([13]; ammonium salt): ≤ 0.5 µg/mL | 24 Hr. MIC ([14]; ammonium salt): ≤ 0.5 µg/mL | 24 Hr. MIC ([15]; ammonium salt): ≤ 0.5 µg/mL

Cn1nc(-c2ncc([N+](=O)[O-])n2C)c(C#N)c1NC(=O)C(=O)NN [Example 8, 5-[4-Cyano-1-methyl-3-(1-methyl-5-nitroimidazol-2-yl)pyrazol-5-yl]semioxamazide, sodium salt]
MIC [1]: > 128 µg/mL | 24 Hr. MIC ([2]; sodium salt): 2 µg/mL | 24 Hr. MIC ([4]; sodium salt): 4 µg/mL | 24 Hr. MIC ([5]; sodium salt): 1.0 µg/mL | 24 Hr. MIC (Peptococcus prevoti 1281; sodium salt): 32 µg/mL | 24 Hr. MIC ([6]; sodium salt): 0.5 µg/mL | MIC [8]: > 128 µg/mL | 24 Hr. MIC ([9]; sodium salt): 1.0 µg/mL | 24 Hr. MIC ([10]; sodium salt): 16 µg/mL | 24 Hr. MIC ([11]; sodium salt): 0.5 µg/mL | 24 Hr. MIC ([12]; sodium salt): 1.0 µg/mL | 24 Hr. MIC ([13]; sodium salt): 1.0 µg/mL | 24 Hr. MIC ([14]; sodium salt): 0.5 µg/mL | 24 Hr. MIC ([15]; sodium salt): 0.5 µg/mL

Cn1nc(-c2ncc([N+](=O)[O-])n2C)c(C#N)c1NC(=O)C(=O)c1ccccc1 [Example 11, N-[4-Cyano-1-methyl-3-(1-methyl-5-nitroimidazol-2-yl)pyrazol-5-yl]-2-phenylglyoxylamide, sodium salt]
24 Hr. MIC [16]: 0.06 µg/mL | 24 Hr. MIC [17]: 0.06 µg/mL | 24 Hr. MIC [18]: 0.06 µg/mL | 24 Hr. MIC [19]: 0.06 µg/mL | 24 Hr. MIC [20]: 0.06 µg/mL | 24 Hr. MIC [21]: 0.06 µg/mL | 24 Hr. MIC [22]: 0.06 µg/mL | 24 Hr. MIC [23]: 0.125 µg/mL | 24 Hr. MIC [24]: 0.125 µg/mL | 24 Hr. MIC [25]: 0.06 µg/mL | 24 Hr. MIC [26]: 0.06 µg/mL | 24 Hr. MIC [27]: 0.06 µg/mL | 24 Hr. MIC [28]: 0.06 µg/mL | 24 Hr. MIC [29]: 0.25 µg/mL | 24 Hr. MIC [30]: 0.125 µg/mL | 24 Hr. MIC [31]: 0.125 µg/mL | 24 Hr. MIC ([2]; sodium salt): 0.5 µg/mL | 24 Hr. MIC ([3]; sodium salt): 0.25 µg/mL | 24 Hr. MIC ([4]; sodium salt): 0.5 µg/mL | 24 Hr. MIC (Peptococcus prevoti 1281; sodium salt): 2 µg/mL | 24 Hr. MIC ([6]; sodium salt): 0.25 µg/mL | 24 Hr. MIC ([7]; sodium salt): 32 µg/mL | 24 Hr. MIC ([9]; sodium salt): 0.06 µg/mL | 24 Hr. MIC ([10]; sodium salt): 16 µg/mL | 24 Hr. MIC ([11]; sodium salt): ≤ 0.03 µg/mL | 24 Hr. MIC ([12]; sodium salt): 1.0 µg/mL | 24 Hr. MIC ([13]; sodium salt): 0.25 µg/mL | 24 Hr. MIC ([15]; sodium salt): 0.25 µg/mL
